Legend:
[1] = Solubility by UV-VIS measurement (Example 1); format: physicochemical; conditions: room temperature, UV-VIS at 248 nm, filtered by 100 nm syringe filter
Experimental: The solubility of nanostructured Ezetimibe compared to the reference form of the active compound was determined in distilled water and 0.05% SDS solution by UV-VIS measurements (Thermo Genesys 10S spectrophotometer) at 248 nm wavelength and room temperature. The redispersed sample was filtered by 100 nm disposable syringe filter.

[2] = PAMPA permeability measurement (Example 5); format: in vitro ADME; conditions: redispersed in distilled water; receiver phosphate buffered saline with 1% sodium lauryl sulphate; UV at 248 nm
Experimental: Reference Ezetimibe and solid nanostructured Ezetimibe was redispersed in distilled water and permeability was measured across and artificial membrane composed of dodecane with 20% soy lecithin. The sample containing the reference compound was a suspension of crystals visible by the naked eye, while the nanostructured sample was an opalescent colloid solution. The receiver compartment was phosphate buffered saline with 1% sodium lauryl sulphate.

[3] = cited from earlier work
[4] = cited from earlier work; remark: listed apart in the source
human plasma proteins = conditions: cited from earlier work

Structure (SMILES) | solubility in 0.05% SDS solution ([1]; 0.05% SDS solution) | solubility in distilled water ([1]; distilled water) | PAMPA permeability [2] | stability ([3]; ambient temperature) | solubility in ethanol, methanol and acetone (descriptive) ([3]; ethanol, methanol, acetone) | solubility in water (descriptive) ([3]; water) | deviation from dose proportionality ([4]; between 5 and 20 mg) | increase of Cmax with food ([4]; consumption of high-fat meals, ZETIA 10-mg tablets) [%] | effect of concomitant food on extent of absorption ([4]; high-fat or non-fat meals, ZETIA 10-mg tablets) | bioavailability (estimated) ([4]; oral) | mean peak plasma concentration (Cmax) ([4]; in vivo, po, 10 mg) [ng/mL] | tmax ([4]; in vivo, po, 10 mg) [h] | bound to human plasma proteins (human plasma proteins) [%]
O=C1[C@H](CC[C@H](O)c2ccc(F)cc2)[C@@H](c2ccc(O)cc2)N1c1ccc(F)cc1 [Ezetimibe, 1-(4-fluorophenyl)-3(R)-[3-(4-fluorophenyl)-3(S)-hydroxypropyl]-4(S)-(4-hydroxyphenyl)-2-azetidinone] | under the detection limit | under the detection limit | under the detection limit | stable at ambient temperature | freely to very soluble | practically insoluble | no substantial deviation from dose proportionality | 38 | no effect | 35-65% |  |  | 
O=C(O)[C@H]1O[C@@H](Oc2ccc([C@@H]3[C@@H](CC[C@H](O)c4ccc(F)cc4)C(=O)N3c3ccc(F)cc3)cc2)[C@H](O)[C@@H](O)[C@@H]1O [Ezetimibe-glucuronide] |  |  |  |  |  |  |  |  |  |  | 45 to 71 | 1 to 2 | > 90

Reference: US20130210794A1, “NANOSTRUCTURED EZETIMIBE COMPOSITIONS, PROCESS FOR THE PREPARATION THEREOF AND PHARMACEUTICAL COMPOSITIONS CONTAINING THEM” (priority 2010, published 2013)
